In publication PMC3157426 (PLoS ONE, 2011):
Entries after “also recorded” stand apart in the source; their conditions may differ. Like-named read-outs stand apart in the source and are kept apart here.

Key:
[1] = target: B/Perth/211/01 D197E mutant NA (Influenza B virus, UniProt Q3S340, D197E); assay type: biochemical, influenza B virus B/Perth/211/01
[2] = target: A/Mississippi/03/01 H1N1 H274Y mutant NA (Influenza A virus, UniProt Q289M4, H275Y); assay type: biochemical, influenza virus A/Mississippi/03/01 H1N1
[3] = target: A/Fukui/45/04 H3N2 E119V mutant NA (Influenza A virus, UniProt C0IZY2, E119V); assay type: biochemical, influenza virus A/Fukui/45/04 H3N2
[4] = read-out: IC50 at 10 min, 30' Pre
[5] = read-out: IC50 at 10 min, No pre
[6] = read-out: final IC50 after 60 min, 30' pre
[7] = read-out: final IC50 after 60 min, No pre

## CC(=O)N[C@H]1[C@H]([C@H](O)[C@H](O)CO)OC(C(=O)O)=C[C@@H]1O [DANA, 2-deoxy,2,3-dehydro N-acetyl neuraminic acid]
[1]
  binding phenotype (slow or fast binding): fast binding
  susceptibility compared to the wild type virus: Some reduced susceptibility
[2]
  binding phenotype (slow or fast binding): fast binding
[3]
  binding phenotype (slow or fast binding): fast binding

## CCC(CC)[C@H](NC(C)=O)[C@@H]1[C@H](O)[C@@H](C(=O)O)C[C@H]1N=C(N)N [Peramivir, peramivir]
[1]
  10'/60 (ratio of IC50s), No pre: 2.5
  No pre/pre (ratio of 60 min IC50s): 1.8
  binding phenotype (slow or fast binding): loss of slow binding
[1]; [4]
  IC50: 3.9 nM
[1]; [5]
  IC50: 186 nM
[1]; [6]
  IC50: 41.5 nM
[1]; [7]
  IC50: 75.2 nM
[2]
  10'/60 (ratio of IC50s), No pre: 0.7
  60'/10 (ratio of IC50s), 30' Pre: 1.5
  No pre/pre (ratio of 60 min IC50s): 1.3
  binding phenotype (slow or fast binding): loss of slow binding
[2]; [4]
  IC50: 100 nM
[2]; [5]
  IC50: 130 nM
[2]; [6]
  IC50: 153 nM
[2]; [7]
  IC50: 196 nM
[3]
  10'/60 (ratio of IC50s), No pre: 7.2
  60'/10 (ratio of IC50s), 30' Pre: 1.5
  No pre/pre (ratio of 60 min IC50s): 10.2
[3]; [4]
  IC50: 1.4 nM
[3]; [5]
  IC50: 154 nM
[3]; [6]
  IC50: 2.1 nM
[3]; [7]
  IC50: 21.4 nM

## CC(=O)N[C@H]1[C@H]([C@H](O)[C@H](O)CO)OC(C(=O)O)=C[C@@H]1N=C(N)N [Zanamivir, zanamivir]
[2]
  binding phenotype (slow or fast binding): no impact on the binding kinetics
[3]
  binding phenotype (slow or fast binding): slow binding phenotype

## oseltamivir carboxylate
[2]
  binding phenotype (slow or fast binding): loss of slow binding
[2]; [4]
  IC50: 1590 nM
[2]; [5]
  IC50: 1900 nM
[2]; [6]
  IC50: 2440 nM
[2]; [7]
  IC50: 2350 nM
[3]
  binding phenotype (slow or fast binding): fast binding; also recorded: loss of slow binding
[3]; [4]
  IC50: 122 nM
[3]; [5]
  IC50: 178 nM
[3]; [6]
  IC50: 260 nM
[3]; [7]
  IC50: 208 nM
